From US20230278972A1, “SUBSTITUTED HALOALKYL SULFONANILIDE HERBICIDES” (FMC Corporation, priority 2020, published 2023)
Read-outs that look alike come from different tables or passages of the source.

What was measured:
Assay type in all cases: in vivo
[1] = system: ragweed (common ragweed, Ambrosia artemisiifolia); experiment: Test A postemergence, ragweed; settings: Ambrosia artemisiifolia, post-emergence, 240 h, Postemergence, 0 to 100 scale (0 no effect, 100 complete control); for pest or weed control at 125 g/ha: 125 g ai/ha; for pest or weed control at 500 g/ha: 500 g ai/ha
How it was run: (§1)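 After sowing into a sand-amended loam, pots for the preemergence test were treated by spraying directly onto soil. In parallel, seedlings at the one- to two-leaf stage and 2 to 10 cm tall were treated postemergence with the identical surfactant-containing formulation.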

[2] = system: wheat (Triticum aestivum); experiment: Test A postemergence, wheat; settings: Triticum aestivum, post-emergence, 240 h, Postemergence, 0 to 100 scale (0 no effect, 100 complete control); for plant injury at 125 g/ha: 125 g ai/ha; for plant injury at 500 g/ha: 500 g ai/ha
How it was run: (§2)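 Greenhouse pot test in a loam–sand blend; compounds delivered in a non-phytotoxic solvent carrying a surfactant, applied either as a directed spray to soil at seeding or over seedlings 2 to 10 cm high with one to two leaves.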

[3] = system: galium (catchweed bedstraw, Galium aparine); experiment: Test A postemergence, galium; settings: Galium, post-emergence, 240 h, Postemergence, 0 to 100 scale (0 no effect, 100 complete control); for pest or weed control at 125 g/ha: 125 g ai/ha; for pest or weed control at 500 g/ha: 500 g ai/ha
How it was run: as §2

[4] = system: Ryegrass, Italian (Italian ryegrass, Lolium multiflorum); experiment: Test A preemergence, Ryegrass, Italian; settings: Lolium multiflorum, pre-emergence, 240 h, Preemergence; for pest or weed control at 125 g/ha: 125 g ai/ha; for pest or weed control at 500 g/ha: 500 g ai/ha
How it was run: as §1

[5] = visual injury approx. 10 days, read-out: Plant response rating, Ragweed
[6] = visual injury vs untreated controls after approx. 10 days, read-out: Ragweed plant response rating
[7] = visual injury approx. 10 days, read-out: Plant response rating, Wheat
[8] = visual injury vs untreated controls after approx. 10 days, read-out: Wheat plant response rating
[9] = visual injury approx. 10 days, read-out: Plant response rating, Galium
[10] = visual injury vs untreated controls after approx. 10 days, read-out: Galium plant response rating
[11] = visual injury on 0 to 100 scale (0 no effect, 100 complete control), approximately 10 days, read-out: Ryegrass, Italian plant response rating
[12] = 0 to 100 scale (0 no effect, 100 complete control), read-out: Plant response rating, Ryegrass, Italian
[13] = visual injury, approx. 10 days, read-out: Plant response rating, Ragweed
[14] = visual injury, approx. 10 days, read-out: Plant response rating, Wheat
[15] = visual injury, approx. 10 days, read-out: Plant response rating, Galium
[16] = read-out: Plant response rating, Ragweed
[17] = read-out: Plant response rating, Wheat
[18] = read-out: Plant response rating, Galium
[19] = visual injury, 0 to 100 scale (0 no effect, 100 complete control), approx. 10 days, read-out: Plant response rating, Ryegrass, Italian

## Cc1cc(C)c(C2=NOC3CCOCC23)cc1NS(=O)(=O)C(F)(F)F (stereo not shown) [Compound 120, N-[2,4-Dimethyl-5-(3a,6,7,7a-tetrahydro-4H-pyrano[3,4-d]isoxazol-3-yl)phenyl]-1,1,1-trifluoromethanesulfonamide]
[1]; [5]
  pest or weed control at 125 g/ha: 80%
[1]; [6]
  pest or weed control at 500 g/ha: 90%
[2]; [7]
  plant injury at 125 g/ha: 70%
[2]; [8]
  plant injury at 500 g/ha: 70%
[3]; [9]
  pest or weed control at 125 g/ha: 90%
[3]; [10]
  pest or weed control at 500 g/ha: 90%
[4]; [11]
  pest or weed control at 125 g/ha: 100%
[4]; [12]
  pest or weed control at 500 g/ha: 100%

## Cc1cc(C)c(C2=NO[C@@H]3CCC[C@H]23)cc1NS(=O)(=O)C(F)(F)F [Compound 103, N-[2,4-Dimethyl-5-[(3aR,6aR)-3a,5,6,6a-tetrahydro-4H-cyclopent[d]isoxazol-3-yl]phenyl]-1,1,1-trifluoromethanesulfonamide]
[1]; [5]
  pest or weed control at 125 g/ha: 60%
[1]; [6]
  pest or weed control at 500 g/ha: 70%
[2]; [7]
  plant injury at 125 g/ha: 60%
[2]; [8]
  plant injury at 500 g/ha: 80%
[3]; [9]
  pest or weed control at 125 g/ha: 90%
[3]; [10]
  pest or weed control at 500 g/ha: 100%
[4]; [11]
  pest or weed control at 125 g/ha: 90%
[4]; [12]
  pest or weed control at 500 g/ha: 90%

## Cc1cc(C)c(N(COC(=O)C(C)(C)C)S(=O)(=O)C(F)(F)F)cc1C1=NO[C@@H]2CCC[C@H]12 [Compound 100, [[2,4-Dimethyl-5-[(3aR,6aR)-3a,5,6,6a-tetrahydro-4H-cyclopent[d]isoxazol-3-yl]phenyl][(trifluoromethyl)sulfonyl]amino]methyl 2,2-dimethylpropanoate]
[1]; [5]
  pest or weed control at 125 g/ha: 40%
[1]; [6]
  pest or weed control at 500 g/ha: 80%
[2]; [7]
  plant injury at 125 g/ha: 20%
[2]; [8]
  plant injury at 500 g/ha: 50%
[3]; [9]
  pest or weed control at 125 g/ha: 80%
[3]; [10]
  pest or weed control at 500 g/ha: 90%
[4]; [11]
  pest or weed control at 125 g/ha: 40%
[4]; [12]
  pest or weed control at 500 g/ha: 70%

## Cc1cc(Cl)c(NS(=O)(=O)C(F)(F)F)cc1C(=O)N1CCOCC1 [Compound 16, N-[2-Chloro-4-methyl-5-(4-morpholinylcarbonyl)phenyl]-1,1,1-trifluoromethanesulfonamide]
[1]; [5]
  pest or weed control at 125 g/ha: 80%
[1]; [13]
  pest or weed control at 500 g/ha: 90%
[2]; [7]
  plant injury at 125 g/ha: 50%
[2]; [14]
  plant injury at 500 g/ha: 70%
[3]; [9]
  pest or weed control at 125 g/ha: 80%
[3]; [15]
  pest or weed control at 500 g/ha: 90%
[4]; [11]
  pest or weed control at 125 g/ha: 90%
[4]; [12]
  pest or weed control at 500 g/ha: 100%

## Cc1cc(Cl)c(NS(=O)(=O)C(F)(F)F)cc1C(=O)N1CCC(F)(F)CC1 [Compound 229, N-[2-Chloro-5-[(4,4-difluoro-1-piperidinyl)carbonyl]-4-methylphenyl]-1,1,1-trifluoromethanesulfonamide]
[1]; [16]
  pest or weed control at 125 g/ha: 90%
[1]; [6]
  pest or weed control at 500 g/ha: 90%
[2]; [17]
  plant injury at 125 g/ha: 60%
[2]; [8]
  plant injury at 500 g/ha: 70%
[3]; [18]
  pest or weed control at 125 g/ha: 90%
[3]; [10]
  pest or weed control at 500 g/ha: 90%
[4]; [19]
  pest or weed control at 125 g/ha: 60%
[4]; [11]
  pest or weed control at 500 g/ha: 90%

## Cc1cc(C)c(C2=NOC3(CCCC3)C2)cc1NS(=O)(=O)C(F)(F)F [Compound 207, N-[2,4-Dimethyl-5-(1-oxa-2-azaspiro[4.4]non-2-en-3-yl)phenyl]-1,1,1-trifluoromethanesulfonamide]
[1]; [16]
  pest or weed control at 125 g/ha: 20%
[1]; [6]
  pest or weed control at 500 g/ha: 70%
[2]; [17]
  plant injury at 125 g/ha: 60%
[2]; [8]
  plant injury at 500 g/ha: 70%
[3]; [18]
  pest or weed control at 125 g/ha: 50%
[3]; [10]
  pest or weed control at 500 g/ha: 70%
[4]; [19]
  pest or weed control at 125 g/ha: 90%
[4]; [12]
  pest or weed control at 500 g/ha: 100%

## Cc1c(NS(=O)(=O)C(F)(F)F)cc(C(=O)N(C)C)c(C)c1F [Compound 128, 3-Fluoro-N,N,2,4-tetramethyl-5-[[(trifluoromethyl)sulfonyl]amino]benzamide]
[1]; [5]
  pest or weed control at 125 g/ha: 80%
[1]; [6]
  pest or weed control at 500 g/ha: 90%
[2]; [7]
  plant injury at 125 g/ha: 30%
[2]; [8]
  plant injury at 500 g/ha: 60%
[3]; [9]
  pest or weed control at 125 g/ha: 80%
[3]; [10]
  pest or weed control at 500 g/ha: 90%
[4]; [11]
  pest or weed control at 125 g/ha: 100%
[4]; [12]
  pest or weed control at 500 g/ha: 100%

## Cc1cc(C)c(N(COC(=O)C(C)(C)C)S(=O)(=O)C(F)(F)F)cc1C1=NOC2(CCCC2)C1 [Compound 140, [[2,4-Dimethyl-5-(1-oxa-2-azaspiro[4.4]non-2-en-3-yl)phenyl][(trifluoromethyl)sulfonyl]amino]methyl 2,2-dimethylpropanoate]
[1]; [16]
  pest or weed control at 125 g/ha: 0%
[1]; [6]
  pest or weed control at 500 g/ha: 50%
[2]; [17]
  plant injury at 125 g/ha: 0%
[2]; [8]
  plant injury at 500 g/ha: 60%
[3]; [9]
  pest or weed control at 125 g/ha: 50%
[3]; [10]
  pest or weed control at 500 g/ha: 70%
[4]; [11]
  pest or weed control at 125 g/ha: 0%
[4]; [12]
  pest or weed control at 500 g/ha: 100%

## CCc1cc(-c2cc(NS(=O)(=O)C(F)(F)F)c(C)cc2C)c(=O)n(C)n1 [Compound 34, N-[5-(6-Ethyl-2,3-dihydro-2-methyl-3-oxo-4-pyridazinyl)-2,4-dimethylphenyl]-1,1,1-trifluoromethanesulfonamide]
[1]; [5]
  pest or weed control at 125 g/ha: 0%
[1]; [13]
  pest or weed control at 500 g/ha: 0%
[2]; [7]
  plant injury at 125 g/ha: 0%
[2]; [14]
  plant injury at 500 g/ha: 0%
[3]; [9]
  pest or weed control at 125 g/ha: 10%
[3]; [15]
  pest or weed control at 500 g/ha: 0%
[4]; [11]
  pest or weed control at 125 g/ha: 30%
[4]; [12]
  pest or weed control at 500 g/ha: 70%

## Cc1cc(C)c(C2=NOC3COCCC23)cc1NS(=O)(=O)C(F)(F)F (stereo not shown) [Compound 121, N-[2,4-Dimethyl-5-(3a,4,7,7a-tetrahydro-5H-pyrano[4,3-d]isoxazol-3-yl)phenyl]-1,1,1-trifluoromethanesulfonamide]
[1]; [5]
  pest or weed control at 125 g/ha: 90%
[1]; [6]
  pest or weed control at 500 g/ha: 90%
[2]; [7]
  plant injury at 125 g/ha: 60%
[2]; [8]
  plant injury at 500 g/ha: 70%
[3]; [9]
  pest or weed control at 125 g/ha: 90%
[3]; [10]
  pest or weed control at 500 g/ha: 90%
[4]; [11]
  pest or weed control at 125 g/ha: 100%
[4]; [12]
  pest or weed control at 500 g/ha: 100%

## Cc1cc(Cl)c(NS(=O)(=O)C(F)(F)F)cc1C(=O)N1CCCCC1 [Compound 18, N-[2-Chloro-4-methyl-5-(1-piperidinylcarbonyl)phenyl]-1,1,1-trifluoromethanesulfonamide]
[1]; [5]
  pest or weed control at 125 g/ha: 0%
[1]; [13]
  pest or weed control at 500 g/ha: 80%
[2]; [7]
  plant injury at 125 g/ha: 0%
[2]; [14]
  plant injury at 500 g/ha: 70%
[3]; [9]
  pest or weed control at 125 g/ha: 80%
[3]; [15]
  pest or weed control at 500 g/ha: 80%
[4]; [11]
  pest or weed control at 125 g/ha: 90%
[4]; [12]
  pest or weed control at 500 g/ha: 90%

## Cc1cc(C)c(C2=NOC3(CCCCC3)C2)cc1NS(=O)(=O)C(F)(F)F [Compound 197, N-[2,4-Dimethyl-5-(1-oxa-2-azaspiro[4.5]dec-2-en-3-yl)phenyl]-1,1,1-trifluoromethanesulfonamide]
[1]; [16]
  pest or weed control at 125 g/ha: 80%
[1]; [6]
  pest or weed control at 500 g/ha: 80%
[2]; [17]
  plant injury at 125 g/ha: 60%
[2]; [8]
  plant injury at 500 g/ha: 70%
[3]; [18]
  pest or weed control at 125 g/ha: 90%
[3]; [10]
  pest or weed control at 500 g/ha: 90%
[4]; [19]
  pest or weed control at 125 g/ha: 100%
[4]; [12]
  pest or weed control at 500 g/ha: 100%

## Cc1c(NS(=O)(=O)C(F)(F)F)cc(C(=O)N2CCOCC2)c(C)c1F [Compound 190, 1,1,1-Trifluoro-N-[3-fluoro-2,4-dimethyl-5-(4-morpholinylcarbonyl)phenyl]methanesulfonamide]
[1]; [16]
  pest or weed control at 125 g/ha: 80%
[1]; [6]
  pest or weed control at 500 g/ha: 90%
[2]; [17]
  plant injury at 125 g/ha: 40%
[2]; [8]
  plant injury at 500 g/ha: 70%
[3]; [18]
  pest or weed control at 125 g/ha: 70%
[3]; [10]
  pest or weed control at 500 g/ha: 90%
[4]; [19]
  pest or weed control at 125 g/ha: 70%
[4]; [12]
  pest or weed control at 500 g/ha: 100%

## Cc1cc(C)c(N(COC(=O)C(C)(C)C)S(=O)(=O)C(F)(F)F)cc1C1=NOC2(CCCCC2)C1 [Compound 159, [[2,4-Dimethyl-5-(1-oxa-2-azaspiro[4.5]dec-2-en-3-yl)phenyl][(trifluoromethyl)sulfonyl]amino]methyl 2,2-dimethylpropanoate]
[1]; [16]
  pest or weed control at 125 g/ha: 60%
[1]; [6]
  pest or weed control at 500 g/ha: 90%
[2]; [17]
  plant injury at 125 g/ha: 30%
[2]; [8]
  plant injury at 500 g/ha: 50%
[3]; [18]
  pest or weed control at 125 g/ha: 80%
[3]; [10]
  pest or weed control at 500 g/ha: 90%
[4]; [11]
  pest or weed control at 125 g/ha: 0%
[4]; [12]
  pest or weed control at 500 g/ha: 30%
